Reference: paper PMC11892739, “Site-specific molecular glues for the 14-3-3/Tau pS214 protein–protein interaction via reversible covalent imine tethering” (RSC Medicinal Chemistry, 2025)
“Also recorded” adds a separate entry of the source.

Tests used:
Assay type in all cases: binding
[1] = target: T1, 14-3-3γ/Tau pS214 interaction (Homo sapiens, UniProt P61981); assay: Fluorescence anisotropy 14-3-3γ titration with compound and monovalent Tau pS214 peptide; conditions: for apparent cooperativity factor (app. α), 14-3-3γ/Tau pS214: 2D titrations, 14-3-3γ titrated at varied compound concentrations, saturation of the ratio
T1 construct: made in house; host or cells: NiCo21 (DE3) E. coli
T1 sequence (P61981 1-247): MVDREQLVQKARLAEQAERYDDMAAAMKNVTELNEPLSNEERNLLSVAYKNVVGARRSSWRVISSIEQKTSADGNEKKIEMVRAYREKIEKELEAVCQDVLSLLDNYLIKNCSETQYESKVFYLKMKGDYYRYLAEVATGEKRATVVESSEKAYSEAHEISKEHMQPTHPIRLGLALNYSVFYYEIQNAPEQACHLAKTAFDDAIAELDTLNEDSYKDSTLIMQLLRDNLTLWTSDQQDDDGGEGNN
Protocol: (§1) FA assays in which 14-3-3γ was titrated to a constant concentration of compound (250 μM) in the presence of the distinct monovalent Tau peptide (10 nM) were performed.
(§2) The determined stabilization factors are concentration-dependent (here 250 μM of compound) and might differ based on assay design. […] The app. α-factors of these compounds for both 14-3-3/Tau complexes were determined by 14-3-3γ titrations in the presence of varied concentrations of the particular compound (Fig. 5d and e). Both compounds reached saturation for both 14-3-3γ/Tau complexes enabling accurate determination of the α-factor. The app. α-factors of aldehydes 1 and 18 were plotted for both 14-3-3γ/Tau complexes to investigate phospho-binding site selective cooperativity (Fig. 5f and h). To do so, the stabilization factors at a given compound concentration were plotted against the compound concentration, leading to the determination of the app. α-factors. […]
(§3) chromatography (HisTrap high performance cartridges, Cytiva). Typically two 5 mL columns were used for a 2 L culture in which the lysate was loaded on the column, washed with 10 CV wash buffer (50 mM Hepes, pH 8.0, 300 mM NaCl, 25 mM imidazole, 2 mM βME), and eluted with several fractions (2-4 CV) of elution buffer (50 mM Hepes, pH 8.0, 300 mM NaCl, 250 mM imidazole, 2 mM βME). Fractions containing the 14-3-3 protein were combined and dialyzed into 25 mM HEPES pH 8.0, 200 mM NaCl, 10 mM MgCl2, 2 mM βME, followed by dialysis into 25 mM HEPES, 100 mM NaCl, 10 mM MgCl2, 500 μM TCEP (adjusted to pH 8.0). Dialyzed protein was concentrated to ∼40 mg/mL, analyzed by Q -Tof LC/MS, and aliquots were flash -frozen for storage at −80 °C. […]
(§4) 0.1% (v/v) Tween20, 0.1% (w/v) BSA). Dilution series were made in polystyrene low -volume 384 -well plates (Corning #4514, Black Round Bottom). Measurements were performed directly after plate preparation, using a Tecan SPARK plate reader at room temperature ( λex: 485±20 nm; λem: 535±25 nm; mirror: automatic; flashes: 30; settle time: 1 ms; gain: optimal; Z -position: calculated from well). Wells containing only fluorescein labelled peptide were used to set as G -factor calibrated from these wells. All data were analyzed using GraphPad Prism (10.0.1) and fitted with a four -parameter logistic model (4PL) to determine binding affinities (dissociation constant, KD). All data shown is background corrected for the signal without 14 -3-3ζ and the mean and standard deviation of technical duplicate is plotted, assay performed in a scientific duplicate for hit compounds.
(§5) Fluorescence Anisotropy – 14-3-3 titrations in the presence of compound To characterize the affinity of the Tau peptides for 14-3-3 in the presence of compound, 14-3-3ζ or γ was titrated in a 2-fold dilution series starting at 400 (for the 14-3-3ζ titrations to Tau pS2) or 800 (for the 14-3-3γ titrations to Tau pS214 or pS324) µM. 14-3-3 was added to 10 nM of fluorescein-labeled peptide (Tau pS2, Tau pS214 or Tau pS324) in the presence of 250 µM compound (1% DMSO). The assays were performed in a similar way as described above. Data shown is the average and standard deviation of a technical duplicate, top plateau corrected where needed, assay performed in a scientific duplicate. […]
(§6) The peptide screen was performed in a similar way as the 14-3-3ζ titration in the precence of compound.
(§7) 14-3-3ζ was titrated in a 2-fold dilution series (starting at 400 µM 14-3-3ζ) to 100 nM of fluorescein-labeled peptides and 250 µM compound 18 (1% DMSO) in FA buffer (10 mM HEPES pH 7.4, 150 mM […]
(§8) Data shown is the average of a scientific triplicate. […]
(§9) DSF was performed using 40 µl samples containing 2.5 µM 14 -3-3ζ, 25 µM Tau peptide (Tau pS2, Tau pS214 or Tau pS324), […] (1% DMSO) and 5x ProteoOrange (Lumiprobe, 5000x stock in DMSO) in 10 mM HEPES, 150 mM NaCl, 50 µM TCEP (pH 7.4). The samples were heated from 35 °C to 79°C at a rate of 0.3 °C per 15 s in a C FX96 Touch Real-Time PCR Detection System (Bio -Rad). Fluorescence […]

[2] = system: 14-3-3γ/Tau pS214 interaction; assay: as above; conditions: SF250μM with 14-3-3γ, 250 μM compound
Protocol: as §1, §2, §3, §4, §5, §6, §7, §8, §9

14-3-3γ = 14-3-3γ (Homo sapiens, UniProt P61981); assay: 19F-NMR spectroscopy of fluorinated analogs at varying 14-3-3 concentrations; conditions: 125 μM stabilizer, 14-3-3 0-250 μM, no Tau peptide
Protocol: Fig. 3 a Dose–response fluorescence anisotropy data of compound titrations to 10 nM FITC-labeled Tau pS2 peptide and 100 nM 14-3-3ζ. […] Mean of three individually performed experiments (see ESI ^† Fig. S8 for the protein titrations). e Differential scanning fluorimetry assay results. Identified melting temperatures (Tm) of 14-3-3γ alone (2.5 μM) and in the presence of Tau pS2 peptide (25 μM) and additionally with selected compounds (75 μM).
This stepwise mechanism has been described in detail for related benzaldehyde stabilizers and the 14-3-3/Pin1 interaction.[34] However, the imidazolyl-benzaldehydes might also show an intrinsic binding affinity for 14-3-3. To elucidate the underlying processes, we performed ^19F-NMR spectroscopy studies (Fig. 3f) with the fluorinated analogs 20 and 21. At a constant stabilizer concentration (125 μM), the 14-3-3 concentration was varied from 0 μM to 250 μM.

Structure (SMILES) | phospho-binding site preference Tau pS214 versus Tau pS324 (in words) [2] | other results
O=Cc1ccc(-n2ccnc2-c2ccccc2)cc1Br [Compound 1] | did not show a difference in stabilization | apparent cooperativity factor (app. α), 14-3-3γ/Tau pS214 [1]: 3.8
Cc1cccc(-c2nccn2-c2ccc(C=O)c(Br)c2)c1 [Compound 6] | no significant preference | 
Cc1ccc(-c2nccn2-c2ccc(C=O)c(Br)c2)cc1 [Compound 11] | significantly greater extent | 
O=Cc1ccc(-n2ccnc2-c2ccc(F)cc2)cc1Br [Compound 13] | no preference for Tau pS214 | 
O=Cc1ccc(-n2ccnc2-c2ccc(Cl)cc2)cc1Br [Compound 14] | significantly greater extent; also recorded: preference for Tau pS214 | 
O=Cc1ccc(-n2ccnc2-c2ccc(I)cc2)cc1Br [Compound 15] | significantly greater extent; also recorded: preference for Tau pS214 | 
CCc1ccc(-c2nccn2-c2ccc(C=O)c(Br)c2)cc1 [Compound 18] | significantly greater extent; also recorded: highest stabilization selectivity for the 14-3-3γ/Tau pS214 complex | SF250μM for the 14-3-3γ/Tau pS214 complex ([1]; 250 μM compound, 10 nM Tau pS214 peptide, internal DMSO reference): 8.6; apparent cooperativity factor (app. α), 14-3-3γ/Tau pS214 [1]: 10.2
O=Cc1ccc(-n2ccnc2-c2ccc(C(F)(F)F)cc2)cc1Br [Compound 20] |  | binding to 14-3-3 by 19F-NMR (in words) (14-3-3γ): formation of the binary 14-3-3/stabilizer complex
O=Cc1ccc(-n2ccnc2-c2ccc(OC(F)(F)F)cc2)cc1Br [Compound 21] |  | binding to 14-3-3 by 19F-NMR (in words) (14-3-3γ): ligand binding to 14-3-3γ; also recorded: formation of the binary 14-3-3/stabilizer complex
N#Cc1ccc(-c2nccn2-c2ccc(C=O)c(Br)c2)cc1 [Compound 22] | preference for Tau pS214 | 
